# Results from article PMC11252453 (Acta Pharmaceutica Sinica. B, 2024).
# How the values were obtained:
# [1] = test system: SARS-CoV-2 PLpro mediated IFNB expression; type: cell-based
# [2] = test system: Vero E6 cells; details: African green monkey
# [3] = biological target: SARS-CoV-2 PLpro (Severe acute respiratory syndrome coronavirus 2, UniProt P0DTD1); assay: cell-based
Compound,IFNB mRNA expression [1],CC50 [2] [µM],EC50 [3] [µM]
CCC(C(=O)Nc1cc(NC2COC2)ccc1C)n1cc(Br)cc2nc(SCc3ccc(F)cc3)nc1-2 (stereo not shown) [Compound 45],fully restore IFNB expression,,
CCC(C(=O)Nc1cc(NC2CCNCC2)ccc1C)n1cc(Cl)cc2nc(SCc3ccc(F)cc3)nc1-2 (stereo not shown) [Compound 39],fully restore IFNB expression,> 50,
CCC(C(=O)Nc1cc(NC2CCNCC2)ccc1C)n1cc(Br)cc2nc(SCc3ccc(F)cc3)nc1-2 (stereo not shown) [Compound 44],,,3.81 ± 0.59
